According to patent US9029293B2, “Tobacco axillary bud inhibitor and tobacco axillary bud-inhibiting method” (priority 2011, dated 2015):

Columns and labels:
[1] = tested on: axillary buds of tobacco Michinoku 1 (burley cultivar); assay: Axillary bud growth inhibition, pot test in glasshouse, spraying after top pruning (burley cultivar); format: in vivo, Nicotiana tabacum; conditions: 28 days after spraying
Protocol: (§1) Tobacco seedlings of Tsukuba 1 (flue-cured cultivar) and Michinoku 1 (burley cultivar) were transplanted to 1/5000a Wagner pots filled with Kureha garden nursery soil. The plants were grown in a glasshouse, and the floral axis parts were removed at the time of single-flower bloom of tobacco (top pruning).
(§2) The formulations of the inhibitors for tobacco axillary bud growth obtained in Formulation Examples 1 to 4 above were each diluted with water to predetermined concentrations, and 20 ml of the water-diluted solutions of the respective inhibitors were separately sprayed using a contact-type axillary bud inhibitor spraying instrument equipped with a spot exhaust nozzle (Examples 1 to 4 and 5 to 8). In addition, butralin (trade name: Blue Ribbon) (Comparative Examples 1 to 2 and 5 to 6) and decyl alcohol (trade name: Contact) (Comparative Examples 3 to 4 and 7 to 8) were used for tests as comparative examples in the same manner as above. In the cases of both the flue-cured cultivar and burley cultivar, one plant was planted per pot, and the tests were carried out in duplicate.
(§3) For the respective cases, states of inhibition of axillary bud growth 28 days after the spraying were investigated together with untreated groups sprayed with no inhibitor, and axillary bud growth inhibition ratios were calculated by the following equation. Axillary bud growth inhibition ratio=(fresh weight of axillary buds per plant of untreated group−fresh weight of axillary buds per plant of treated group)÷(fresh weight of axillary buds per plant of untreated group)×100 [Math. 1]
(§4) Formulation of Formulation Example 1 or Formulation Example 3 was diluted with water to predetermined concentrations and mixed with decyl alcohol (manufactured by Wako Pure Chemical Industries, Ltd.), 2-ethylhexanol (manufactured by Wako Pure Chemical Industries, Ltd.) or geraniol (manufactured by Wako Pure Chemical Industries, Ltd.) at predetermined concentrations, and the resultant was adjusted and used for tests (Examples 9 to 14 and 15 to 20). In addition, as comparative examples, the formulation of Formulation Example 1 or Formulation Example 3 diluted with water to predetermined concentrations (Comparative Examples 9 to 10 and 14 to 15) and decyl alcohol, 2-ethylhexanol or geraniol diluted with water to a predetermined concentration were used for tests (Comparative Examples 11 to 13 and 16 to 18).
(§5) The respective inhibitors were sprayed in the same manner as in Test Example 1, and states of inhibition of axillary bud growth 28 days after the spraying were investigated together with untreated groups sprayed with no inhibitor. Then, axillary bud growth inhibition ratios were calculated.

[2] = tested on: axillary buds of tobacco Tsukuba 1 (flue-cured cultivar); assay: Axillary bud growth inhibition, pot test in glasshouse, spraying after top pruning (flue-cured cultivar); format: in vivo, Nicotiana tabacum; conditions: 28 days after spraying
Protocol: as §1, §2, §3, §4, §5

[3] = tested on: leaves (first to fourth from the top) of tobacco Michinoku 1 (burley cultivar); assay: Harmful effect of inhibitor on leaves (burley cultivar); set-up: species or system Nicotiana tabacum; conditions: in vivo
Protocol: as §1, §2
Further, the presence or absence of the harmful effect of each inhibitor was evaluated in one of the following four categories depending on the degrees of growth inhibition, gangrene, change in color, deformation and the like of leaves (first to fourth leaves from the top). […]

[4] = active ingredient 0.03%, 20 ml sprayed
[5] = active ingredient 0.35%, 20 ml sprayed
[6] = active ingredient 2.6%, 20 ml sprayed

| SMILES | Axillary bud growth inhibition ratio (%) ([1]; active ingredient 0.005%) | Axillary bud growth inhibition ratio (%) ([2]; active ingredient 0.005%) | Axillary bud growth inhibition ratio (%) [1, 4] [%] | Axillary bud growth inhibition ratio (%) [2, 4] [%] | Harmful effect of inhibitor [3] | Axillary bud growth inhibition ratio (%) ([1]; active ingredient 0.5%) | Axillary bud growth inhibition ratio (%) ([2]; active ingredient 0.5%) | other results |
| --- | --- | --- | --- | --- | --- | --- | --- | --- |
| CSC(=O)c1c(C(F)F)nc(C(F)(F)F)c(C(=O)SC)c1CC(C)C [Dithiopyr, dithiopyr] | 78 | 75 | – | – | – | – | – | – |
| CCC(C)Nc1c([N+](=O)[O-])cc(C(C)(C)C)cc1[N+](=O)[O-] (centres unmarked) [Butralin, butralin] | – | – | 48 | 44 | Absent | – | – | Axillary bud growth inhibition ratio (%) [1, 5]: 97%; Axillary bud growth inhibition ratio (%) [2, 5]: 98% |
| CCCCC(CC)CO (centres unmarked) [2-ethylhexanol] | – | – | – | – | – | 28 | 21 | – |
| C#CC(C)(C)NC(=O)c1cc(Cl)cc(Cl)c1 [Propyzamide, propyzamide] | 72 | 70 | – | – | – | – | – | – |
| CC(C)=CCC/C(C)=C/CO [Geraniol, geraniol] | – | – | – | – | – | 32 | 26 | – |
| CCCCCCCCCCO [Decyl Alcohol, decyl alcohol] | – | – | 0 | 0 | Absent | 37 | 30 | Axillary bud growth inhibition ratio (%) [1, 6]: 94%; Axillary bud growth inhibition ratio (%) [2, 6]: 91% |
